Data set [1] concerns responders (thymus of C57B1/6) induced by stimulators (spleen of DBA/2). As to the kind of experiment: "In vitro-ex vivo" mixed lymphocyte reaction (MLR). The arrangement: species or system mice. To be noted: 25 mg/kg/day i.p. from day -5 to day -1. The protocol: Test 8 Assessment of the "in vitro-ex vivo" effect of ST 733, ST 754 and ST 789 on the mixed lymphocyte reaction (MLR).
Male DBA/2 mice (Charles River, Italy) aged 8 weeks were used as "stimulators" (4 animals per group); male inbred C57 B1/6 mice (Charles River, Italy) were used as "responders" (4 animals per group).
The compounds were administered i.p. from day -5 to day -1 (thymus excision of "responders" at day 0) 25 mg/kg/day.
The experimental procedure that was used is described by Hudson, L. and Hay, F. C., Practical Immunology, Blackwell Scientific Publication 290 (1980).

A further data set has as its system DTH reaction vs. SRBC. As to the kind of experiment: Delayed type hypersensitivity test (DTH) vs. SRBC in mice. The data set is classed as in vivo. To be noted: 25 mg/kg/day i.p. from day -3 to day +3 respect to the immunization. The protocol:
Test 6 Assessment of the effect of ST 785 and ST 789 on the delayed type hypersensitivity test (DTH).
Male B6 D2 F1 mice (Charles River, Italy) aged 6, 12 and 16 weeks (8 animals per group) were used.
The compounds were administered i.p., 25 mg/kg/day from day -3 to day +3 (immunization at day 0). Immunization was carried out by s.c. injection in the upper dorsal zone of the animals of 0.2 mL of SRBC (5×10^7 cells/mL).
Four days following the sensitizing injection, the animals were administered the challenge injection to bring about the delayed hypersensibility reaction. 50 μL of SRBC solution (2×10^9 cells/mL) were injected in the left hind foot-pad of the mice. The contralateral foot-pad received an equal volume of PBS. 24 hours after the challenge injection, the animals were sacrificed by cervical dislocation. The legs were amputated and the differences in weight between the left leg (treated with the challenge injection) and the contralateral leg were evaluated.
The mean of weight differences in the legs of the animals of the same experimental group was determined; the differences in the mean values calculated for each experimental group were processed using Student's "t" test (Biostatistics in Pharmacology, loc cit.).
The experimental procedure which was used is described by Miller, T. E. et al, (1973), Immunopotentiation with BCG. Modulation of the response to sheep red blood cells. J. Cancer Inst., 51:1669.

For `N=C(N)NCCC[C@H](NC(=O)OCCCCCn1cnc2c(=O)[nH]cnc21)C(=O)O` [ST 789, N-5-(ipoxantin-9-yl) pentyloxycarbonylarginine, reference compound], in data set [1], the “Body weight” value is given as 22.1 ± 0.5 g, the “Spleen weight” value is listed as 82.7 ± 3.2 mg, the “Thymus weight” value came out at 63.0 ± 7.9 mg and the “^3 H-TdR Incorporation (cpm ± S.E.) Non stimulated responders” value is 132.0 cpm. For the same compound, the “^3 H-TdR Incorporation (cpm ± S.E.) Stimulated responders” value in data set [1] is given as 9256 cpm. Moreover, the “Thymocytes No. (× 10^7)” value in data set [1] (pooled samples) was 14.7 × 10^7. In the data set with DTH reaction vs. SRBC, the “Mean difference in weight (mg ± S.E.) between treated and untreated foot-pads” value is given as 34.9 ± 0.76 mg.

These data come from patent publication US5298621A, “Oligopeptide derivatives of ipoxantine endowed with immunomodulating activity and pharmaceutical compositions containing same” (Sigma-Tau Industrie Farmaceutiche Riunite S.p.A., priority 1990, dated 1994).
